Patent US12357603B2, “Acyl sulfonamides for treating cancer” (Bayer Aktiengesellschaft, priority 2019, dated 2025)

Experiments:
[1] = target: Recombinant human His-tagged Kat6a protein (amino acids 194-810) (Homo sapiens (Human), UniProt Q92794); experiment: Kat6a activity assay (TR-FRET, acetylation of biotinylated Histone-H4-derived peptide); type: biochemical; conditions: 60 mins at 22° C., read-out: KAT6A-DPF/HAT domain IC50 [mol/l] (arithmetic mean)
Excerpt: Kat6a inhibitory activities of the compounds described in the present invention were quantified using a Fluorescence Resonance Energy Transfer (TR-FRET) assay which measures acetylation of a synthetic, biotinylated Histone-H4-derived peptide by the enzyme.
Recombinant human His-tagged Kat6a protein (amino acids 194-810), was purified in-house from Baculovirus-infected insect cells (Sf9). Histone H4 peptide (amino acids 1-24, […]-VLRD-K(Btn)-amide), which was used as substrate, was synthesized by Biosyntan GmbH, Berlin, Germany. Acetyl Coenzyme A was purchased from Sigma-Aldrich (#A-2056).
Kat6a was incubated for 60 mins at 22° C. in the presence of different concentrations of test substances (0 μM, and within the range 0.01-20 μM) in assay buffer [25 mM Tris/HCl pH 8, 1 mM EGTA, 2.5 mM Glutathion, 0.02% Chicken Albumin, 0.05% Pluronic F127, 25 mM NaCl, 220 nM H4 peptide and 600 nM Acetyl Coenzym A].
The reaction was stopped by addition of Detection Solution (25 mM HEPES pH 7.5, 0.1% BSA, 22 nM SAXL665 (Cisbio #610SAXLE), 100 μM Anacardic Acid (Enzo #ALX-270-381), 1 nM Anti-Histone H4 (ACETYL K8) Antibody (ABCAM #AB15823) and 0.5 nM Anti-Rabbit IgG Eu (Perkin Elmer #AD0083).
The fluorescence emission at 620 nm and 665 nm after excitation at 330-350 nm was measured in a TR-FRET measuring instrument, for instance a Rubystar or a Pherastar (both from BMG Lab Technologies, Offenburg, Germany) or a Viewlux (Perkin-Elmer). The ratio of the emission at 665 nm and at […] was used as indicator of the amount of acetylated peptide.
The resulting data (ratio) were normalized, taking 0% inhibition as the mean value of control measurements where all reagents were included. In this case 50 nl DMSO were used instead of compounds. […] IC50 values were determined by regression analysis based on a 4 parameter equation (minimum, maximum, ICM, Hill; Y=Max+(Min−Max)/(1+(X/ICso) Hill) using the Screener Software (Genedata).
Table 5 depicts the IC50 values of selected examples in biochemical KAT6A and KAT6B3 assays.

[2] = system: ESR1 transcription (luciferase signal in MVLN cells); experiment: Repression of ESR1 transcription, luciferase reporter in MVLN cells; type: cell-based; conditions: Homo sapiens, MVLN, inhibition of luciferase signal in MVLN cells; arithmetic mean
Excerpt: Repression of ESR1 Transcription Upon Treatment of Cells with Compounds
KAT6A controls transcription of the ESR1 gene in breast cancer cells. Compound treatment that interferes with this mechanism was quantified using MVLN cells. These cells constitutively express the ER and are stably transfected with the luciferase (LUC) reporter gene and the corresponding hormone responsive element derived from the 5′-flanking region of the Xenopus Vitellogenin A2 gene (Pons et al., 1990, Demirpense et al., 1993, Joyeux et al., 1993). The repressive effect on ERα transcription activity of a test chemical is directly related to the luciferase measured in the lysate of treated MVLN cells.
Each sample was prepared as duplicate and rim wells were excluded. For luciferase signal determination 100 μl of a 1:1 mixture of Steadylite plus (Perkin Elmer; 6016759) and assay medium was added after 24 h for 15 minutes and measured in Victor X3 (Perkin Elmer). To exclude any effects caused by cell loss during the treatment, cell density was determined using Alamar Blue (Invitrogen; DAL1100). Prior to the luciferase measurement 10 μl Alamar Blue were added to each well and the plates were incubated for 2 h in the incubator. Then fluorescence was measured with Victor X3 (Perkin Elmer) at 530 nm/590 nm.

MDA-MB-436 cells = experiment: Proliferation assay MDA-MB-436, negative control cell line (Alamar Blue, 144 h); type: cell-based; conditions: Homo sapiens, MDA-MB-436, 144 h, arithmetic mean
Excerpt: (§1) Proliferation Assays for Compound Characterization
(§2) For compound characterization cell survival assays were routinely run in two cell lines. ZR-75-1 is a breast carcinoma cell line containing a focal KAT6A amplification and high KAT6A protein expression. Proliferation of this cell line is inhibited upon treatment with KAT6A inhibitors. As a negative control cell line MDA-MB-436 were used. These cells carry a […] deletion of the KAT6A gene, have a low KAT6A protein expression and are not growth inhibited upon treatment with KAT6A inhibitors.
(§3) For measurements cell lines were plated at the below indicated concentration per […] in 96-well plates in a humidified incubator at 37° C. and 5% CO2.
MDA-MB-436 (CLS, 300278; breast adenocarcinoma); 3000 cells per well; culture medium: DMEM/Ham's F12 (Biochrom #FG 4815) medium containing 2.5% FBS (Biochrom #S0615).
(§4) 24 hours later, cells were treated with compounds (stock solution, 10 mM in DMSO) using the HP D300 Digital Dispenser in a concentration range of 2.0×10E-5 M to 2.0×10E-9 M in a single-dot curve with 9 dilutions and a DMSO concentration of 0.2%. Each sample was prepared as triplicate and rim wells were excluded. Plates were incubated at 37° C. and 5% CO2 for 144 h. Cell viability was measured by adding 10 μL of Alamar Blue Reagent (Invitrogen #DAL 1100) and plates were incubated for 2 h at 37° C. and 5% CO2. Fluorescence was measured at 590 nm wavelength with a Tecan Spark or Victor X3 MTP-Reader (PerkinElmer).

ZR-75-1 cells = experiment: Proliferation assay ZR-75-1 (Alamar Blue, 144 h); type: cell-based; conditions: Homo sapiens, ZR-75-1, 144 h, arithmetic mean, read-out: ZR75-1 proliferation assay, EC50 [M] (arithmetic mean)
Excerpt: as §1, §2, §3
ZR-75-1 (ATCC, CRL-1500; breast carcinoma); 3000 cells per well; culture medium: RPMI 1640 (Biochrom #FG 1215) medium containing 2.5% FBS (Biochrom #S0615).
as §4

Recombinant human His-tagged Kat6a protein (amino acids 194-810), sequence (Q92794 194-810): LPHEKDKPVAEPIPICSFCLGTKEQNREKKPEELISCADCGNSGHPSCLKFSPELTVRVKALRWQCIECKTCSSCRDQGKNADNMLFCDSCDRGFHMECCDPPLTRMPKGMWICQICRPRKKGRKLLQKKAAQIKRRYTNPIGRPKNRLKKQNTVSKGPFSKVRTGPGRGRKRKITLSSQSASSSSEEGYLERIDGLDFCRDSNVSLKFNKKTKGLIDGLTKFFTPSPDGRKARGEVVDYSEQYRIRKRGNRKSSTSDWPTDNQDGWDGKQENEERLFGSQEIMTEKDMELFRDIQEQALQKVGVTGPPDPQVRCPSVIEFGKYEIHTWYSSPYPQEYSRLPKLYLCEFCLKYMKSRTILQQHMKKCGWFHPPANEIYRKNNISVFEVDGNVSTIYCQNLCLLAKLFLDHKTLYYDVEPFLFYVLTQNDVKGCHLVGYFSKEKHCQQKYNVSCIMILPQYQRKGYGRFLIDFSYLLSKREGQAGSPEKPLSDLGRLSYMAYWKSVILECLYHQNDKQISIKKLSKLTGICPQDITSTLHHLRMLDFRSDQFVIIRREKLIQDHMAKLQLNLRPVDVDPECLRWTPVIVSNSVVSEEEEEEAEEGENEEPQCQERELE

## CC1CCCN1c1ccc2cc(C(=O)NS(=O)(=O)c3ccccc3-c3ccccc3)oc2c1 (racemic) [Example 44, N-([1,1′-Biphenyl]-2-sulfonyl)-6-[2-methylpyrrolidin-1-yl]-1-benzofuran-2-carboxamide (rac)]
[1]
  IC50: 3170 nM
[2]
  IC50: > 20000 nM
MDA-MB-436 cells
  EC50: > 20000 nM
ZR-75-1 cells
  EC50: > 2e-05 M

## CC(Oc1ccccc1S(=O)(=O)NC(=O)c1cc2ccc(N(C)C)cc2o1)C(F)(F)F (racemic) [Example 135, 6-(Dimethylamino)-N-(2-[-1,1,1-trifluoropropan-2-yl)oxy]benzene-1-sulfonyl)-1-benzofuran-2-carboxamide (rac)]
[1]
  IC50: 57.9 nM
[2]
  IC50: 68.6 nM
MDA-MB-436 cells
  EC50: > 20000 nM
ZR-75-1 cells
  EC50: 1.46e-07 M

## CCOc1ccc(C(C)CC)cc1S(=O)(=O)NC(=O)c1cc2ccc(N(C)C)cc2o1 (racemic) [Example 170, 6-(Dimethylamino)-N-(2-ethoxy-5-sec-butyl-phenyl)sulfonyl-benzofuran-2-carboxamide (rac)]
[1]
  IC50: 4.4 nM
[2]
  IC50: 22.1 nM
MDA-MB-436 cells
  EC50: > 20000 nM
ZR-75-1 cells
  EC50: 3.02e-08 M

## CN(C)c1ccc2cc(C(=O)NS(=O)(=O)c3ccc(Cl)cc3Cl)oc2c1 [Example 27, N-(2,4-Dichlorobenzene-1-sulfonyl)-6-(dimethylamino)-1-benzofuran-2-carboxamide]
[1]
  IC50: 134 nM
[2]
  IC50: 1750 nM
MDA-MB-436 cells
  EC50: > 20000 nM
ZR-75-1 cells
  EC50: 1.73e-06 M

## CN1Cc2cccc(S(=O)(=O)NC(=O)c3cc4ccc(N(C)C)cc4o3)c2C1=O [Example 95, 6-(Dimethylamino)-N-(2-methyl-3-oxo-2,3-dihydro-1H-isoindole-4-sulfonyl)-1-benzofuran-2-carboxamide]
[1]
  IC50: 150 nM
[2]
  IC50: 488 nM
MDA-MB-436 cells
  EC50: > 20000 nM
ZR-75-1 cells
  EC50: 7.18e-07 M

## CN(C)c1ccc2cc(C(=O)NS(=O)(=O)c3ccccc3OC(F)(F)C(F)(F)F)oc2c1 [Example 96, 6-(Dimethylamino)-N-[2-(pentafluoroethoxy)benzene-1-sulfonyl]-1-benzofuran-2-carboxamide]
[1]
  IC50: 260 nM
[2]
  IC50: 556 nM
MDA-MB-436 cells
  EC50: > 20000 nM
ZR-75-1 cells
  EC50: 1e-06 M

## CN(C)c1ccc2cc(C(=O)NS(=O)(=O)c3c(Cl)cccc3C(F)(F)F)oc2c1 [Example 97, N-[2-Chloro-6-(trifluoromethyl)benzene-1-sulfonyl]-6-(dimethylamino)-1-benzofuran-2-carboxamide]
[1]
  IC50: 465 nM
[2]
  IC50: 571 nM
MDA-MB-436 cells
  EC50: > 20000 nM
ZR-75-1 cells
  EC50: 6.15e-07 M

## CN(C)c1ccc2cc(C(=O)NS(=O)(=O)c3ccccc3)oc2c1 [Example 99, N-(benzenesulfonyl)-6-(dimethylamino)-1-benzofuran-2-carboxamide]
[1]
  IC50: 645 nM
[2]
  IC50: 672 nM
MDA-MB-436 cells
  EC50: > 20000 nM
ZR-75-1 cells
  EC50: 6.63e-07 M

## Cc1cc(Cn2cccn2)cc(S(=O)(=O)NC(=O)c2cc3ccc(N(C)C)cc3o2)c1C [Example 100]
[1]
  IC50: 177 nM
[2]
  IC50: 974 nM
MDA-MB-436 cells
  EC50: > 20000 nM
ZR-75-1 cells
  EC50: 1.12e-06 M

## CCc1ccc(Cn2cccn2)cc1S(=O)(=O)NC(=O)c1cc2ccc(N(C)C)cc2o1 [Example 102, 6-(Dimethylamino)-N-{2-ethyl-5-[(1H-pyrazol-1-yl)methyl]benzene-1-sulfonyl}-1-benzofuran-2-carboxamide]
[1]
  IC50: 489 nM
[2]
  IC50: 1470 nM
MDA-MB-436 cells
  EC50: > 20000 nM
ZR-75-1 cells
  EC50: 1.95e-06 M

## CC(C)Oc1ccccc1S(=O)(=O)NC(=O)c1cc2cc(Br)c(N(C)C)cc2o1 [Example 208, 5-Bromo-6-(dimethylamino)-N-{2-[(propan-2-yl)oxy]benzene-1-sulfonyl}-1-benzofuran-2-carboxamide]
[2]
  IC50: 14600 nM
MDA-MB-436 cells
  EC50: > 20000 nM
ZR-75-1 cells
  EC50: 1.83e-05 M

## CCOc1ccc(Br)cc1S(=O)(=O)NC(=O)c1cc2ccc(N(C)CCOC)cc2o1 [Example 213, N-(5-Bromo-2-ethoxybenzene-1-sulfonyl)-6-[(2-methoxyethyl)(methyl)amino]-1-benzofuran-2-carboxamide]
[2]
  IC50: 9880 nM
MDA-MB-436 cells
  EC50: > 20000 nM
ZR-75-1 cells
  EC50: 8.48e-06 M
